{"source": "paper PMC10600185", "about": "“Development and pharmaceutical investigation of novel cervical cancer-targeting and redox-responsive melittin conjugates” (Scientific Reports, 2023)", "key": {"[1]": {"assay": "MTT cytotoxicity assay, NSF", "type": "cell-based", "conditions": "human, normal skin fibroblast (NSF) cells, 24 h treatment, serial dilutions 256–1 µg/mL, concentration by modified Mel peptide content, mean of three replicates", "procedure": "(§1) C-33A ([…], ATCC), HeLa ([…], ATCC), 3T3 (CRL-1658™, ATCC), Normal Skin Fibroblast (CRL-2091™, ATCC) and MCF-7 (HTB-22™, ATCC) cell lines were cultured in complete EMEM, DMEM, DMEM, EMEM, and EMEM (containing 1% Pen/Strep antibiotic and 10% FBS), respectively. Cells from the different lines were seeded at a density of 5 × 10^4 cells/well in 100 µL medium placed in a flat-bottom 96-well plate and incubated at 5% CO2 and 37 °C. After 24 h, the medium was discarded from the 96-well plate. Serial dilutions of peptide/conjugate (i.e., 256–1 µg/mL) were prepared in triplicate in 100 µL complete medium then added onto each well and incubated at 5% CO2 and 37 °C for 24 h. The cytotoxicity was determined by MTT test (MTT, Cell Proliferation Kit, Roche) and measured at 550–690 nm on a microplate reader. The cell cytotoxicity was calculated with respect to control groups treated with only complete medium."}, "human red blood cells": {"test_system": "human red blood cells", "assay": "Hemolytic activity", "type": "cell-based", "conditions": "human erythrocytes in tris-saline pH 7.2, 256–4 µg/mL, 37 °C, 1 h, absorbance 414 nm, triplicate", "procedure": "30 µL of fresh human blood was added to 10 mL of autoclaved tris-saline (10 mM tris, 150 mM NaCl, pH 7.2) and centrifuged at 1500 rpm for 5 min three times. 100 µL of the blood mix was added to each well of a round-bottom 96-well plate. Concentrations of freshly prepared peptide/conjugate (i.e., ranging from 256–4 µg/mL) in tris-saline (100 µL of total volume) were added to the 96-well plate containing the blood mix and the plate kept at 37 °C for 1 h. Triton X-100 in 10% DMSO-treated blood mix and blood mix without addition were used as positive and negative controls, respectively. Next, the plate was centrifuged for 10 min at 1500 rpm. The supernatants were taken into a new round-bottom 96-well plate and measured at 414 nm using a microplate reader. All samples were used as a triplicate."}, "[2]": {"assay": "MTT cytotoxicity assay, 3T3", "type": "cell-based", "conditions": "mouse, 3T3 cells (embryonic fibroblasts), 24 h treatment, serial dilutions 256–1 µg/mL, concentration by modified Mel peptide content, mean of three replicates", "procedure": "as §1"}, "[3]": {"assay": "HPLC % ACN at elution as measure of hydrophobicity", "type": "physicochemical", "conditions": "semi-preparative RP-HPLC, C-18 column; for HPLC gradient (ACN %) of the purified peak: 0–100% ACN (0.025% TFA) gradient, 30 min for FA conjugates, 40 min for Target conjugates, % ACN used as hydrophobicity", "procedure": "The peptide/conjugate was purificated and analyzed (data not shown) using HPLC (Agilent Technologies, USA) with C-18 column (RPC 250 × 10 mm ID hydrophobic 6 µm, Agilent VariTide). For the CM–FA and MC–FA conjugates’ purification, we used a 0–100% ACN (0.025% TFA) gradient for 30 min, and for the CM–Target, and MC–Target conjugates, we used a 0–100% ACN (0.025% TFA) gradient for 40 min. Peptide methods for HPLC purification are provided in Supp. Data 1. A Nicolet iS10 FT-IR was used to obtain infrared spectra of the peptide/conjugates in the range of 4000–500 cm^−1. The chemical structure of the peptide/conjugates was characterized by proton nuclear resonance (^1H NMR) spectroscopy using a 400-MHz Burker NMR spectrometer in DMSO-d6. To evaluate the molecular weight of the synthesized peptide, LC–MS/MS (6420 Triple Quad, Agilent Technologies) was used."}, "HeLa cells": {"test_system": "HeLa cells", "assay": "ROS assay (DCFDA), HeLa", "type": "cell-based, human", "conditions": "200 µM TBHP positive control, Ex/Em 485/535 nm, data not shown", "procedure": "(§2) To evaluate the ROS activity of peptide/conjugates, a ROS kit (DCFDA/H2DCFDA—Cellular ROS Assay Kit, Abcam) was applied to C33A, HeLa, and Normal Skin Human Fibroblast cells. 25,000 cells/well were seeded on a flat-bottom 96-well plate and incubated at 37 °C and 5% CO2. After 24 h, the media was discarded, and the wells were washed with 1 × buffer. DCFDA was then added to wells (except for non-stained control cells) and all plates were incubated for 45 min at 37 °C and 5% CO2 in the dark. […] A positive control (TBHP) was also applied. The results were assessed using a microplate reader (Varioskan Flash, Thermo Scientific) at Ex/Em: 485/535 nm. The negative control (non-stained cells) was subtracted from the cell control and drug samples for calculation."}, "C33A cells": {"test_system": "C33A cells", "assay": "ROS assay (DCFDA), C33A", "type": "cell-based, human", "conditions": "200 µM TBHP positive control, Ex/Em 485/535 nm, data not shown", "procedure": "as §2"}, "NSF cells": {"test_system": "NSF cells", "assay": "ROS assay (DCFDA), NSF", "type": "cell-based, human", "conditions": "200 µM TBHP positive control, Ex/Em 485/535 nm, data not shown", "procedure": "as §2"}, "S. aureus 25923": {"test_system": "S. aureus 25923", "assay": "Minimum inhibitory concentration, S. aureus", "type": "cell-based, Staphylococcus aureus", "parameters": "key: No inhibitory effects were observed at any of the concentrations tested in the areas marked “X” and bacterial growth was seen", "conditions": "MHB, two-fold dilutions 1024–0.5 µg/mL, 37 °C overnight, OD 600 nm", "procedure": "(§3) The MIC of the conjugates on E. coli and S. aureus were determined. 95 µL of the MHB containing serial two-fold dilutions of each peptide/conjugate were added to a round-bottom 96-well plate from a maximum concentration of 1024 µg/mL to 0.5 µg/mL. Bacterial samples were taken from an exponentially growing culture in MHB and adjusted to 1.5 × 10^6 CFU/mL. 5 µL of the prepared bacterial suspension was added to each well and incubated at 37 °C, overnight. The bacterial growth was measured using a microplate reader (Gen5 Synergy HT, Biotek) at 600 nm. Broth containing only bacteria was used as a positive control while broth without bacteria was used as a negative control."}, "E. coli 25922": {"test_system": "E. coli 25922", "assay": "Minimum inhibitory concentration, E. coli", "type": "cell-based, Escherichia coli", "parameters": "key: No inhibitory effects were observed at any of the concentrations tested in the areas marked “X” and bacterial growth was seen", "conditions": "MHB, two-fold dilutions 1024–0.5 µg/mL, 37 °C overnight, OD 600 nm", "procedure": "as §3"}, "cell lines": {"test_system": "cell lines", "assay": "Cytotoxicity of the targeting peptide alone on the cell lines", "type": "cell-based", "conditions": "tested alone on cell lines, data not shown", "procedure": "as §1"}}, "data": [{"compound": "CC[C@H](C)[C@H](NC(=O)CNC(=O)[C@@H](N)CS)C(=O)NCC(=O)N[C@@H](C)C(=O)N[C@H](C(=O)N[C@@H](CC(C)C)C(=O)N[C@@H](CCCCN)C(=O)N[C@H](C(=O)N[C@@H](CC(C)C)C(=O)N[C@H](C(=O)N[C@H](C(=O)NCC(=O)N[C@@H](CC(C)C)C(=O)N1CCC[C@H]1C(=O)N[C@@H](C)C(=O)N[C@@H](CC(C)C)C(=O)N[C@H](C(=O)N[C@@H](CO)C(=O)N[C@@H](Cc1c[nH]c2ccccc12)C(=O)N[C@H](C(=O)N[C@@H](CCCCN)C(=O)N[C@@H](CCCNC(=N)N)C(=O)N[C@@H](CCCCN)C(=O)N[C@@H](CCCNC(=N)N)C(=O)N[C@@H](CCC(N)=O)C(=O)N[C@@H](CCC(N)=O)C(N)=O)[C@@H](C)CC)[C@@H](C)CC)[C@@H](C)O)[C@@H](C)O)C(C)C)C(C)C", "note": "[C-Mel]", "values": [{"measurement": "IC50 at 24 h", "setting": "[1]", "result": 53.4, "unit": "µg/mL"}, {"measurement": "Hemotoxicity ranking among peptides/conjugates", "setting": "human red blood cells", "result": "highest hemotoxicity"}, {"measurement": "IC50 at 24 h", "setting": "[2]", "result": 84, "unit": "µg/mL"}, {"measurement": "HPLC gradient (ACN %) of the purified peak", "setting": "[3]", "result": "77–79%"}]}, {"compound": "CC[C@H](C)[C@H](NC(=O)CN)C(=O)NCC(=O)N[C@@H](C)C(=O)N[C@H](C(=O)N[C@@H](CC(C)C)C(=O)N[C@@H](CCCCN)C(=O)N[C@H](C(=O)N[C@@H](CC(C)C)C(=O)N[C@H](C(=O)N[C@H](C(=O)NCC(=O)N[C@@H](CC(C)C)C(=O)N1CCC[C@H]1C(=O)N[C@@H](C)C(=O)N[C@@H](CC(C)C)C(=O)N[C@H](C(=O)N[C@@H](CO)C(=O)N[C@@H](Cc1c[nH]c2ccccc12)C(=O)N[C@H](C(=O)N[C@@H](CCCCN)C(=O)N[C@@H](CCCNC(=N)N)C(=O)N[C@@H](CCCCN)C(=O)N[C@@H](CCCNC(=N)N)C(=O)N[C@@H](CCC(N)=O)C(=O)N[C@@H](CCC(N)=O)C(N)=O)[C@@H](C)CC)[C@@H](C)CC)[C@@H](C)O)[C@@H](C)O)C(C)C)C(C)C", "note": "[Mel, Melittin]", "values": [{"measurement": "HPLC gradient (ACN %) of the purified peak", "setting": "[3]", "result": "63–72%"}, {"measurement": "Hydrophobicity as % ACN at elution", "setting": "[3]; ACN (0.025% TFA) gradient", "result": 67, "unit": "% ACN"}]}, {"compound": "CC[C@H](C)[C@H](NC(=O)CN)C(=O)NCC(=O)N[C@@H](C)C(=O)N[C@H](C(=O)N[C@@H](CC(C)C)C(=O)N[C@@H](CCCCN)C(=O)N[C@H](C(=O)N[C@@H](CC(C)C)C(=O)N[C@H](C(=O)N[C@H](C(=O)NCC(=O)N[C@@H](CC(C)C)C(=O)N1CCC[C@H]1C(=O)N[C@@H](C)C(=O)N[C@@H](CC(C)C)C(=O)N[C@H](C(=O)N[C@@H](CO)C(=O)N[C@@H](Cc1c[nH]c2ccccc12)C(=O)N[C@H](C(=O)N[C@@H](CCCCN)C(=O)N[C@@H](CCCNC(=N)N)C(=O)N[C@@H](CCCCN)C(=O)N[C@@H](CCCNC(=N)N)C(=O)N[C@@H](CCC(N)=O)C(=O)N[C@@H](CCC(N)=O)C(=O)N[C@@H](CS)C(N)=O)[C@@H](C)CC)[C@@H](C)CC)[C@@H](C)O)[C@@H](C)O)C(C)C)C(C)C", "note": "[Mel-C]", "values": [{"measurement": "IC50 at 24 h", "setting": "[1]", "result": 43.7, "unit": "µg/mL"}, {"measurement": "IC50 at 24 h", "setting": "[2]", "result": 130, "unit": "µg/mL"}, {"measurement": "HPLC gradient (ACN %) of the purified peak", "setting": "[3]", "result": "77–79%"}]}, {"compound": "CC(C)(C)OO", "note": "[TBHP]", "values": [{"measurement": "ROS level, HeLa", "setting": "HeLa cells", "result": 51.26, "unit": "RFU"}, {"measurement": "ROS level, C33A", "setting": "C33A cells", "result": 60.70, "unit": "RFU"}, {"measurement": "ROS level, NSF", "setting": "NSF cells", "result": 36.46, "unit": "RFU"}]}, {"compound": "CKQNLAEG [Targeting peptide, CSP-KQ peptide (CKQNLAEG), specific to cervical squamous cell carcinoma tissue]", "values": [{"measurement": "Minimum inhibitory concentration, S. aureus 25923", "setting": "S. aureus 25923", "result": "X"}, {"measurement": "Minimum inhibitory concentration, E. coli 25922", "setting": "E. coli 25922", "result": "X"}, {"measurement": "Toxicity of the peptide alone on cell lines", "setting": "cell lines", "result": "non-toxic"}, {"measurement": "HPLC gradient (ACN %) of the purified peak", "setting": "[3]", "result": "53–57%"}]}]}
